# Measurements published in patent US20060069132A1, “Azolecarboxamide herbicides” (priority 2004, published 2006).
# What was measured:
# Test in all cases: Test E pre-/postemergence herbicide test
# Details in all cases: Preemergence
# [1] = tested on: common groundsel; assay type: in vivo, Senecio vulgaris
# Summary of the method: (§1)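 Test chemicals in a non-phytotoxic solvent mixture with surfactant applied preemergence to planted seeds and postemergence to plants 2 to 18 cm tall (1- to 4-leaf stage). After 12 to 14 days in the greenhouse, injury rated visually against untreated controls on a 0–100 scale (0 no effect, 100 complete control).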
# [2] = tested on: dallisgrass; assay type: in vivo, Paspalum dilatatum
# Summary of the method: as §1
# [3] = tested on: common ragweed; assay type: in vivo, Ambrosia elatior
# Summary of the method: as §1
# [4] = tested on: Surinam grass; assay type: in vivo, Urochloa decumbens
# Summary of the method: as §1
# [5] = tested on: guineagrass; assay type: in vivo, Panicum maximum
# Summary of the method: as §1
# [6] = tested on: barnyardgrass; assay type: in vivo, Echinochloa crus-galli
# Summary of the method: as §1
# [7] = tested on: common mallow; assay type: in vivo, Malva sylvestris
# Summary of the method: as §1
# [8] = tested on: mustard; assay type: in vivo, Brassica nigra
# Summary of the method: as §1
# [9] = tested on: Canada horseweed; assay type: in vivo, Erigeron Canadensis
# Summary of the method: as §1
# [10] = tested on: large crabgrass; assay type: in vivo, Digitaria sanguinalis
# Summary of the method: as §1
# [11] = tested on: southern sandbur; assay type: in vivo, Cenchrus echinatus
# Summary of the method: as §1
# [12] = tested on: field bindweed; assay type: in vivo, Convolvulus arvensis
# Summary of the method: as §1
# [13] = tested on: quackgrass; assay type: in vivo, Elytrigia repens
# Summary of the method: as §1
# [14] = tested on: tropical spiderwort; assay type: in vivo, Commelina benghalensis
# Summary of the method: as §1
# [15] = tested on: pitted morningglory; assay type: in vivo, Ipomoea lacunosa
# Summary of the method: as §1
# [16] = tested on: Russian thistle; assay type: in vivo, Salsola kali
# Summary of the method: as §1
# [17] = tested on: prickly sida; assay type: in vivo, Sida spinosa
# Summary of the method: as §1
# [18] = 250 g ai/ha, scale 0 (no effect) to 100 (complete control)
# [19] = 500 g ai/ha, scale 0 (no effect) to 100 (complete control)
compound,measurement,setting,value
Cc1nn(C(C)(C)C)nc1C(=O)Nc1cccc(C(=O)N(C)C)c1 [Compound 391],"Plant response rating, Groundsel","[1]; 125 g ai/ha, scale 0 to 100",95
same,"Plant response rating, Groundsel",[1]; [18],100
same,"Plant response rating, Groundsel",[1]; [19],100
same,"Plant response rating, Dallisgrass","[2]; 62 g ai/ha, scale 0 to 100",60
same,"Plant response rating, Dallisgrass","[2]; 125 g ai/ha, scale 0 to 100",80
same,"Plant response rating, Dallisgrass",[2]; [18],95
same,"Plant response rating, Dallisgrass",[2]; [19],95
same,"Plant response rating, Ragweed","[3]; 62 g ai/ha, scale 0 to 100",50
same,"Plant response rating, Ragweed","[3]; 125 g ai/ha, scale 0 to 100",75
same,"Plant response rating, Ragweed",[3]; [18],95
same,"Plant response rating, Ragweed",[3]; [19],100
same,"Plant response rating, Surinam Grass","[4]; 125 g ai/ha, scale 0 to 100",70
same,"Plant response rating, Surinam Grass",[4]; [19],100
same,"Plant response rating, Guineagrass","[5]; 62 g ai/ha, scale 0 to 100",60
same,"Plant response rating, Guineagrass","[5]; 125 g ai/ha, scale 0 to 100",80
same,"Plant response rating, Guineagrass",[5]; [18],100
same,"Plant response rating, Guineagrass",[5]; [19],100
same,"Plant response rating, Barnyardgrass","[6]; 62 g ai/ha, scale 0 to 100",50
same,"Plant response rating, Barnyardgrass","[6]; 125 g ai/ha, scale 0 to 100",100
same,"Plant response rating, Barnyardgrass",[6]; [18],100
same,"Plant response rating, Barnyardgrass",[6]; [19],100
same,"Plant response rating, Mallow","[7]; 62 g ai/ha, scale 0 to 100",80
same,"Plant response rating, Mallow","[7]; 125 g ai/ha, scale 0 to 100",80
same,"Plant response rating, Mallow",[7]; [18],100
same,"Plant response rating, Mallow",[7]; [19],100
same,"Plant response rating, Black Mustard","[8]; 62 g ai/ha, scale 0 to 100",50
same,"Plant response rating, Black Mustard","[8]; 125 g ai/ha, scale 0 to 100",80
same,"Plant response rating, Black Mustard",[8]; [18],100
same,"Plant response rating, Black Mustard",[8]; [19],100
same,"Plant response rating, Horseweed","[9]; 62 g ai/ha, scale 0 to 100",80
same,"Plant response rating, Horseweed","[9]; 125 g ai/ha, scale 0 to 100",95
same,"Plant response rating, Horseweed",[9]; [18],100
same,"Plant response rating, Horseweed",[9]; [19],100
same,"Plant response rating, Crabgrass, Large","[10]; 62 g ai/ha, scale 0 to 100",60
same,"Plant response rating, Crabgrass, Large","[10]; 125 g ai/ha, scale 0 to 100",95
same,"Plant response rating, Crabgrass, Large",[10]; [18],95
same,"Plant response rating, Crabgrass, Large",[10]; [19],95
same,"Plant response rating, Sandbur","[11]; 62 g ai/ha, scale 0 to 100",10
same,"Plant response rating, Sandbur","[11]; 125 g ai/ha, scale 0 to 100",70
same,"Plant response rating, Sandbur",[11]; [18],80
same,"Plant response rating, Sandbur",[11]; [19],80
same,"Plant response rating, Bindweed, Field","[12]; 62 g ai/ha, scale 0 to 100",20
same,"Plant response rating, Bindweed, Field","[12]; 125 g ai/ha, scale 0 to 100",90
same,"Plant response rating, Bindweed, Field",[12]; [18],90
same,"Plant response rating, Bindweed, Field",[12]; [19],95
same,"Plant response rating, Quackgrass","[13]; 62 g ai/ha, scale 0 to 100",40
same,"Plant response rating, Quackgrass","[13]; 125 g ai/ha, scale 0 to 100",90
same,"Plant response rating, Quackgrass",[13]; [18],95
same,"Plant response rating, Quackgrass",[13]; [19],95
same,"Plant response rating, Spiderwort","[14]; 125 g ai/ha, scale 0 to 100",90
same,"Plant response rating, Spiderwort",[14]; [18],90
same,"Plant response rating, Spiderwort",[14]; [19],95
same,"Plant response rating, Morningglory","[15]; 62 g ai/ha, scale 0 to 100",10
same,"Plant response rating, Morningglory","[15]; 125 g ai/ha, scale 0 to 100",60
same,"Plant response rating, Morningglory",[15]; [18],80
same,"Plant response rating, Morningglory",[15]; [19],80
same,"Plant response rating, Thistle","[16]; 125 g ai/ha, scale 0 to 100",100
same,"Plant response rating, Thistle",[16]; [19],100
same,"Plant response rating, Prickly Sida","[17]; 62 g ai/ha, scale 0 to 100",50
same,"Plant response rating, Prickly Sida","[17]; 125 g ai/ha, scale 0 to 100",100
same,"Plant response rating, Prickly Sida",[17]; [18],100
same,"Plant response rating, Prickly Sida",[17]; [19],100
